The record followed here is US20250090540A1, “PI3K-ALPHA INHIBITORS AND METHODS OF USE THEREOF” (Relay Therapeutics, Inc., priority 2021, published 2025).

SMILES strings stand for the structures.

One assay addresses H1047R PIK3CA enzyme (Homo sapiens, UniProt P42336, H1047R). Description: ADP-Glo Biochemical PIK3CA Kinase Assay. The conditions noted are these: ADP-Glo biochemical PIK3CA kinase assay.
A further assay in a line: cells. The conditions noted are these: Homo sapiens, MCF-10A, read-out: MCF10A I50.

Sequence of H1047R PIK3CA enzyme (P42336 whole entry H1047R): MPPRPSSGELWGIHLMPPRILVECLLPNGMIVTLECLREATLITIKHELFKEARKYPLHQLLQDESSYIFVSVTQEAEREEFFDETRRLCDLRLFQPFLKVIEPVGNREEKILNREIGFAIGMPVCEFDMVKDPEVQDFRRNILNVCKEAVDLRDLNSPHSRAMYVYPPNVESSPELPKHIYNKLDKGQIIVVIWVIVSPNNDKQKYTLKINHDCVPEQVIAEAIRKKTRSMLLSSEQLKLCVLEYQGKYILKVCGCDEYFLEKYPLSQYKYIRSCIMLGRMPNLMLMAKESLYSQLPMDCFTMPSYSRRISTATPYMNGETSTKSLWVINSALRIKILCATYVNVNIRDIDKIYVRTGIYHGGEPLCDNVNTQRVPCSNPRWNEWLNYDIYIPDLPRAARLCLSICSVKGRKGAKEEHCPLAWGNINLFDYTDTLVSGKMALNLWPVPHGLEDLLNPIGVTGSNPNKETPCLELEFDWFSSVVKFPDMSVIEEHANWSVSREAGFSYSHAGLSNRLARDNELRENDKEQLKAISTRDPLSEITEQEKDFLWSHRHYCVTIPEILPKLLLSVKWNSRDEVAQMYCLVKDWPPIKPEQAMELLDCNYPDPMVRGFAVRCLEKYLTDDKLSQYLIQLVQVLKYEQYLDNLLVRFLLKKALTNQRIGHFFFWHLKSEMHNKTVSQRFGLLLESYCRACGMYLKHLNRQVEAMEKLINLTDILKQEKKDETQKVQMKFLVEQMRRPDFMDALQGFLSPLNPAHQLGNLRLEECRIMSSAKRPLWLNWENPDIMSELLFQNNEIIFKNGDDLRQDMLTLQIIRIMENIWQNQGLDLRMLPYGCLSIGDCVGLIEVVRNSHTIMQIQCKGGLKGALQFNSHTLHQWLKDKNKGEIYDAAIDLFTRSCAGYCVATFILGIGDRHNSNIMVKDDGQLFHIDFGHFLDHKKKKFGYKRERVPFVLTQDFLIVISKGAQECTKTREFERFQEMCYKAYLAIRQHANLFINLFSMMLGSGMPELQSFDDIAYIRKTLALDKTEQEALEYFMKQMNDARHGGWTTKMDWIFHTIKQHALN
Sequence of H1047R PIK3CA enzyme (P27986 whole entry partner): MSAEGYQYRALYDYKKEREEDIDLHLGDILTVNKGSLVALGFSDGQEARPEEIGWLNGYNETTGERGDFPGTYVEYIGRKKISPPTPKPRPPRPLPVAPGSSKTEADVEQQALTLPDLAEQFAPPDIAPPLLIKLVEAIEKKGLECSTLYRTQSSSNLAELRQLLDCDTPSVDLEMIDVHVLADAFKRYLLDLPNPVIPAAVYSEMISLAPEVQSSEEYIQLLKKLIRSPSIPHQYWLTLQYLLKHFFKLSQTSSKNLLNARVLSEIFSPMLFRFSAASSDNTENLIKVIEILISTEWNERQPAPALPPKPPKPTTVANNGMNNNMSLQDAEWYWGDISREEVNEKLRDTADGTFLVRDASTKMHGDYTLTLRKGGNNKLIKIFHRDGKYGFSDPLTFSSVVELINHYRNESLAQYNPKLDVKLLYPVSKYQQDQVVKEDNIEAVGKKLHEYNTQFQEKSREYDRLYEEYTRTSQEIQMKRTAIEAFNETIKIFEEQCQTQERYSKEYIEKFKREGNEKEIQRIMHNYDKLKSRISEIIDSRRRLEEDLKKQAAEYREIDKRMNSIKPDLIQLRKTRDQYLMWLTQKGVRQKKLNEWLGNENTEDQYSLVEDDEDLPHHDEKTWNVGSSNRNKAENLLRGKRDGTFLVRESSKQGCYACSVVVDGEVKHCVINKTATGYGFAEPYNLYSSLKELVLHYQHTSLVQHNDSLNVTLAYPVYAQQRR

On to `Cc1ccccc1Nc1ncc(C(=O)NCc2cnccc2C(F)(F)F)cc1NC(=O)c1csc2ccccc12` [I-525], for which the figures for the IC50 against H1047R PIK3CA enzyme and in “cells” were ≤ 100 nM and 10000 to 36000 nM, respectively.
On to `COC[C@@H](C)NC(=O)c1cnc(Nc2ccccc2C)c(NC(=O)c2csc3ccccc23)c1` [I-526], for which the values for the IC50 on H1047R PIK3CA enzyme and in “cells” were 1000 to 10000 nM and 10000 to 36000 nM, respectively.
Take `CNC(=O)c1cnc(Nc2ccccc2C)c(NC(=O)c2cc(C#N)cc(C(F)(F)F)c2)c1` [I-527]: the IC50 against H1047R PIK3CA enzyme was in the range of 100 to 500 nM; in “cells” it was 5000 to 10000 nM.
With `CNC(=O)c1cnc(Nc2ccccc2C)c(NC(=O)c2cccc3[nH]c(C(F)(F)F)nc23)c1` [I-530], the IC50 fell in the range of 100 to 500 nM against H1047R PIK3CA enzyme and 10000 to 36000 nM in “cells”.
Taken in the same sequence, the figures for `Cc1ccccc1Nc1ncc(C(=O)NCc2cnn(C(C)C)c2)cc1NC(=O)c1csc2ccccc12` [I-532] were 100 to 500 nM and 10000 to 36000 nM.
For the molecule `Cc1ccccc1Nc1ncc(C(=O)N2CC(C#N)C2)cc1NC(=O)c1csc2ccccc12` [I-533], the IC50 against H1047R PIK3CA enzyme fell in the range of 1000 to 10000 nM; in the assay “cells”, 10000 to 36000 nM.
Taken in the same sequence, the figures for `Cc1ccccc1Nc1ncc(C(=O)NCc2ccc3c(c2)OCCO3)cc1NC(=O)c1csc2ccccc12` [I-534] were ≤ 100 nM and 10000 to 36000 nM.
In the same order, the values of `CNC(=O)c1cnc(Nc2ccccc2C)c(NC(=O)c2cnc(OC)c(C(F)(F)F)c2)c1` [I-535] are 1000 to 10000 nM and 10000 to 36000 nM.
Taken in the same sequence, the figures for `COc1ccnc(CNC(=O)c2cnc(Nc3ccccc3C)c(NC(=O)c3csc4ccccc34)c2)c1` [I-538] were 100 to 500 nM and 10000 to 36000 nM.
As to `Cc1ccccc1Nc1ncc(C(=O)Nc2ccc3cccnc3c2)cc1NC(=O)c1csc2ccccc12` [I-539], the IC50 is 500 to 1000 nM against H1047R PIK3CA enzyme and 36000 to 100000 nM in the assay “cells”.
Taken in the same sequence, the figures for `Cc1ccccc1Nc1ncc(C(=O)NCc2nc(C3CC3)no2)cc1NC(=O)c1csc2ccccc12` [I-540] were ≤ 100 nM and 1000 to 5000 nM.
Turning to `Cc1ccccc1Nc1ncc(C(=O)NC2CCC(F)(F)C2)cc1NC(=O)c1csc2ccccc12` (stereo not drawn) [I-544], the IC50 against H1047R PIK3CA enzyme was 100 to 500 nM; in “cells”, 10000 to 36000 nM.
In the same order, the values of `Cc1ccccc1Nc1ncc(C(=O)N[C@H]2CCCOC2)cc1NC(=O)c1csc2ccccc12` [I-545] are 100 to 500 nM and 1000 to 5000 nM.
In the same order, the values of `Cc1ccccc1Nc1ncc(C(=O)N[C@H]2CC[C@@H](F)C2)cc1NC(=O)c1csc2ccccc12` [I-546] are ≤ 100 nM and 5000 to 10000 nM.
In the same order, the values of `Cc1ccccc1Nc1ncc(C(=O)N[C@@H]2CC[C@@H](F)C2)cc1NC(=O)c1csc2ccccc12` [I-547] are 100 to 500 nM and 5000 to 10000 nM.
As for `Cc1ccccc1Nc1ncc(C(=O)NCc2ccon2)cc1NC(=O)c1csc2ccccc12` [I-560], the results for the IC50 against H1047R PIK3CA enzyme and in the assay “cells” were ≤ 100 nM and 1000 to 5000 nM, respectively.
Consider `Cc1ccccc1Nc1ncc(C(=O)NCc2cnc3c(C)cccn23)cc1NC(=O)c1csc2ccccc12` [I-561], for which the figures for the IC50 against H1047R PIK3CA enzyme and in “cells” were 100 to 500 nM and 10000 to 36000 nM, respectively.
`Cc1ccccc1Nc1ncc(C(=O)NCC2CCN(C)C(=O)C2)cc1NC(=O)c1csc2ccccc12` (stereo not drawn) [I-563]: the values for the IC50 on H1047R PIK3CA enzyme and in “cells” were 100 to 500 nM and 10000 to 36000 nM, respectively.
In the same order, the values of `CNC(=O)c1cnc(Nc2ccccc2C)c(NC(=O)c2ccc3nnc(Br)n3c2)c1` [I-564] are 500 to 1000 nM and 10000 to 36000 nM.
Taken in the same sequence, the figures for `Cc1ccccc1Nc1ncc(C(=O)NC2NC(=O)c3ccccc32)cc1NC(=O)c1csc2ccccc12` (stereo not drawn) [I-568] were ≤ 100 nM and 1000 to 5000 nM.
Taken in the same sequence, the figures for `Cc1ccccc1Nc1ncc(C(=O)NCC2CCNC(=O)C2)cc1NC(=O)c1csc2ccccc12` (stereo not drawn) [I-569] were 100 to 500 nM and 10000 to 36000 nM.
As for `Cc1ccccc1Nc1ncc(C(=O)NCCn2ccnn2)cc1NC(=O)c1csc2ccccc12` [I-570], the IC50 lay within 100 to 500 nM against H1047R PIK3CA enzyme and 10000 to 36000 nM in “cells”.
In the same order, the values of `Cc1ccccc1Nc1ncc(C(=O)N[C@H]2CCC(F)(F)C[C@@H]2O)cc1NC(=O)c1csc2ccccc12` [I-571] are 100 to 500 nM and 1000 to 5000 nM.
`Cc1ccccc1Nc1ncc(C(=O)NCc2ccncn2)cc1NC(=O)c1csc2ccccc12` [I-572]: the IC50 against H1047R PIK3CA enzyme is 100 to 500 nM; in the assay “cells”, < 1000 nM.
Taken in the same sequence, the figures for `Cc1ccccc1Nc1ncc(C(=O)Nc2ncn(C)n2)cc1NC(=O)c1csc2ccccc12` [I-573] were 500 to 1000 nM and 10000 to 36000 nM.
Taken in the same sequence, the figures for `Cc1ccccc1Nc1ncc(C(=O)NCCn2nccn2)cc1NC(=O)c1csc2ccccc12` [I-578] were 100 to 500 nM and 10000 to 36000 nM.
As for `Cc1cncc(CNC(=O)c2cnc(Nc3ccccc3C)c(NC(=O)c3csc4ccccc34)c2)c1` [I-579], the IC50 was ≤ 100 nM at H1047R PIK3CA enzyme and 5000 to 10000 nM in “cells”.
On to `Cc1ccccc1Nc1ncc(C(=O)NCC2(C#N)CC2)cc1NC(=O)c1csc2ccccc12` [I-580], for which the IC50 is ≤ 100 nM on H1047R PIK3CA enzyme and 1000 to 5000 nM in “cells”.
Taken in the same sequence, the figures for `Cc1ccccc1Nc1ncc(C(=O)NC2(C)CC2)cc1NC(=O)c1csc2ccccc12` [I-581] were ≤ 100 nM and 1000 to 5000 nM.
In the same order, the values of `Cc1ccccc1Nc1ncc(C(=O)NCc2nnc3ccccn23)cc1NC(=O)c1csc2ccccc12` [I-582] are ≤ 100 nM and 5000 to 10000 nM.
Regarding `Cc1ccccc1Nc1ncc(C(=O)NCC2(O)CCOC2)cc1NC(=O)c1csc2ccccc12` (stereo not drawn) [I-583], the IC50 was 500 to 1000 nM on H1047R PIK3CA enzyme and 10000 to 36000 nM in the assay “cells”.
In the same order, the values of `Cc1ccccc1Nc1ncc(C(=O)NC2CCOCC2)cc1NC(=O)c1csc2ccccc12` [I-584] are 100 to 500 nM and 5000 to 10000 nM.
Regarding `Cc1ccccc1Nc1ncc(C(=O)NC2COCC(O)C2)cc1NC(=O)c1csc2ccccc12` (stereo not drawn) [I-585], the IC50 on H1047R PIK3CA enzyme was in the range of 100 to 500 nM; in the assay “cells” it was 10000 to 36000 nM.
Taken in the same sequence, the figures for `Cc1ccccc1Nc1ncc(C(=O)NCC2CCC(O)C2)cc1NC(=O)c1csc2ccccc12` (stereo not drawn) [I-588] were 100 to 500 nM and 10000 to 36000 nM.
In the same order, the values of `Cc1ccccc1Nc1ncc(C(=O)N[C@@H]2COC[C@@H]2F)cc1NC(=O)c1csc2ccccc12` [I-590] are 100 to 500 nM and 5000 to 10000 nM.
Taken in the same sequence, the figures for `Cc1ccccc1Nc1ncc(C(=O)N[C@H]2C[C@@H](C(N)=O)C2)cc1NC(=O)c1csc2ccccc12` [I-591] were ≤ 100 nM and 1000 to 5000 nM.
As to `COCC(=O)N1CCC(NC(=O)c2cnc(Nc3ccccc3C)c(NC(=O)c3csc4ccccc34)c2)CC1` [I-592], the IC50 at H1047R PIK3CA enzyme lay in the range of 1000 to 10000 nM; in “cells”, 5000 to 10000 nM.
Taken in the same sequence, the figures for `Cc1ccccc1Nc1ncc(C(=O)NCc2nccc3ccccc23)cc1NC(=O)c1csc2ccccc12` [I-593] were 100 to 500 nM and 10000 to 36000 nM.
In the same order, the values of `Cc1ccccc1Nc1ncc(C(=O)N[C@@H]2CCO[C@@H]2C)cc1NC(=O)c1csc2ccccc12` [I-594] are 100 to 500 nM and 5000 to 10000 nM.
Taken in the same sequence, the figures for `Cc1ccccc1Nc1ncc(C(=O)N[C@H]2CC[C@@H](O)C2)cc1NC(=O)c1csc2ccccc12` [I-596] were 100 to 500 nM and 1000 to 5000 nM.
As for `Cc1ccccc1Nc1ncc(C(=O)NCC(=O)N2CCCC2)cc1NC(=O)c1csc2ccccc12` [I-597], the IC50 at H1047R PIK3CA enzyme lay in the range of 1000 to 10000 nM; in “cells” it was 36000 to 100000 nM.
In the same order, the values of `COc1cc(CCNC(=O)c2cnc(Nc3ccccc3C)c(NC(=O)c3csc4ccccc34)c2)ccn1` [I-598] are 100 to 500 nM and 5000 to 10000 nM.
Regarding `Cc1ccccc1Nc1ncc(C(=O)NCC2(O)CC2)cc1NC(=O)c1csc2ccccc12` [I-599], the IC50 lay in the range of 100 to 500 nM at H1047R PIK3CA enzyme and 5000 to 10000 nM in the assay “cells”.
Taken in the same sequence, the figures for `Cc1ccccc1Nc1ncc(C(=O)NCc2cn(C)nc2C)cc1NC(=O)c1csc2ccccc12` [I-601] were ≤ 100 nM and 5000 to 10000 nM.
Taken in the same sequence, the figures for `Cc1ccccc1Nc1ncc(C(=O)NCc2cocn2)cc1NC(=O)c1csc2ccccc12` [I-602] were 100 to 500 nM and 10000 to 36000 nM.
In the same order, the values of `Cc1ccccc1Nc1ncc(C(=O)NCC2(O)CCOCC2)cc1NC(=O)c1csc2ccccc12` [I-603] are 500 to 1000 nM and 10000 to 36000 nM.
Take `Cc1cc(CNC(=O)c2cnc(Nc3ccccc3C)c(NC(=O)c3csc4ccccc34)c2)no1` [I-604]: the IC50 was ≤ 100 nM at H1047R PIK3CA enzyme and 1000 to 5000 nM in “cells”.
In the same order, the values of `Cc1ccccc1Nc1ncc(C(=O)NC(C)c2cn[nH]c2)cc1NC(=O)c1csc2ccccc12` (stereo not drawn) [I-605] are ≤ 100 nM and 1000 to 5000 nM.
In the same order, the values of `Cc1ccccc1Nc1ncc(C(=O)N2CC(C)C2)cc1NC(=O)c1csc2ccccc12` [I-607] are 100 to 500 nM and 5000 to 10000 nM.
In the same order, the values of `Cc1ccccc1Nc1ncc(C(=O)NCC2(S(C)(=O)=O)CCC2)cc1NC(=O)c1csc2ccccc12` [I-608] are 500 to 1000 nM and 10000 to 36000 nM.
In the case of `Cc1ccccc1Nc1ncc(C(=O)Nc2ccc3cn(C)nc3c2)cc1NC(=O)c1csc2ccccc12` [I-609], the IC50 was ≤ 100 nM against H1047R PIK3CA enzyme and 1000 to 5000 nM in “cells”.
In the same order, the values of `Cc1ccccc1Nc1ncc(C(=O)NCC(O)C2CCCC2)cc1NC(=O)c1csc2ccccc12` (stereo not drawn) [I-610] are 100 to 500 nM and 10000 to 36000 nM.
For the molecule `CCn1ccc(C)c(CNC(=O)c2cnc(Nc3ccccc3C)c(NC(=O)c3csc4ccccc34)c2)c1=O` [I-611], the IC50 fell in the range of 100 to 500 nM against H1047R PIK3CA enzyme and 5000 to 10000 nM in “cells”.
Taken in the same sequence, the figures for `Cc1ccccc1Nc1ncc(C(=O)NC2(C(N)=O)CC2)cc1NC(=O)c1csc2ccccc12` [I-612] were 100 to 500 nM and < 1000 nM.
Taken in the same sequence, the figures for `Cc1ccccc1Nc1ncc(C(=O)N2CC(O)C2)cc1NC(=O)c1csc2ccccc12` [I-613] were 100 to 500 nM and 10000 to 36000 nM.
For the molecule `Cc1ccccc1Nc1ncc(C(=O)NC(C)c2nnc3ccccn23)cc1NC(=O)c1csc2ccccc12` (stereo not drawn) [I-616], the IC50 on H1047R PIK3CA enzyme was ≤ 100 nM; in the assay “cells”, 1000 to 5000 nM.
Taken in the same sequence, the figures for `Cc1ccccc1Nc1ncc(C(=O)N[C@H]2COC[C@@H]2O)cc1NC(=O)c1csc2ccccc12` [I-618] were 100 to 500 nM and 1000 to 5000 nM.
